Results on two molecules are retold here after PMC7311950, “Potent Tetrahydroquinolone Eliminates Apicomplexan Parasites” (Frontiers in Cellular and Infection Microbiology, 2020).

Data set [1] concerns P. berghei sporozoites. Further details: method as in Doggett et al., 2012; Frueh et al., 2017. The conditions noted are these: doses between 1 and 20 mg/kg, not the prodrug; ref Doggett et al., 2012; Frueh et al., 2017; cited from earlier work.
Data set [2] concerns T. gondii RH-YFP tachyzoites. Description: In vitro challenge assay, RH strain YFP tachyzoites in HFF. In kind it is cell-based. Conditions: Toxoplasma gondii; RH-YFP tachyzoites in HFF; Figure 1A; read-out: Tachy IC50. How it is done:
RH strain YFP Tachyzoites. Protocol was adapted from Fomovska et al. ([2012a],[b]) for HFF. HFF were cultured on a flat, clear-bottomed, black 96-well plate to 90–100% confluence. IMDM (1x, [+] glutamine, [+] 25 mM HEPES, [+] Phenol red, 10% FBS [Gibco, Denmark]) was removed and replaced with IMDM-C(1x, [+] glutamine, [+] 25 mM HEPES, [–] Phenol red, 10% FBS)[Gibco, Denmark]). RH-YFP, lysed from host cells by passing twice through a 27-gauge needle, were counted, then diluted to 32,000/mL in IMDM-C. HFF were infected with 3200 RH-YFP, then returned to 37°C, CO2 (5%) incubator for 1–2 h for infection. Various concentrations of the compounds in 20 μL IMDM-C were added to each well. There were triplicates for each condition. Controls were pyrimethamine/sulfadiazine (standard treatment), 0.1% DMSO only, HFF only, and untreated cultures of HFF infected with 2-fold dilutions of YFP expressing parasites (called “YFP gradient” to establish amount of color from known numbers of YFP expressing parasites). Cells were incubated at 37°C for 72 h. Plates were read using a fluorimeter (Synergy H4 Hybrid Reader, BioTek) to ascertain amount of relative fluorescence units (RFU) YFP, to measure parasite burden after treatment. Data were collected using Gen5 software with IC50 calculated by graphical analysis in Excel.
An initial screening assay of 10 μM, 1 μM, 100 nM, and 10 nM of the compounds was performed. Compounds were not considered effective or pursued for further analysis if there was no inhibition of tachyzoites at 1 μM. If compounds were effective at 1 μM, another experiment was performed to assess effect at 1 μM, 500, 250, 125, 62.5, and 31.25 nM.

A short description of data set [3]: Kinetic solubility in PBS pH 7.4 (Chem Partners). The conditions noted are these: PBS, pH 7.4, aqueous buffer, kinetic from dmso stock. How it is done: The effects of changing R1 as 7-Et, 7-Me, 6-CF3, or 6-Me on activity against RH strain tachyzoites, kinetic solubility, and metabolic stability were compared. Kinetic solubility and metabolic stability in human or murine liver microsomes were measured. The hERG (human Ether-à-go-go-Related) liability was also determined. The hERG gene (KCNH2) encodes a protein Kv11.1, the alpha subunit of a potassium ion channel. This channel conducts the rapid component of the delayed rectifier potassium current, IKr, which is critical for repolarization of cardiac action potentials. A reduction in hERG currents from adverse drug effects can lead to long QT interval syndromes. These syndromes are characterized by action potential prolongation, lengthening of the QT interval on surface EKG, and an increased risk for “torsade de pointes” arrhythmias and sudden death. The MDCK-MDR1 Permeability Assay was also performed. MDCK-MDR1 refers to the ability of a compound to permeate across membranes of MDCK-MDR1 (Madin Darby canine kidney [MDCK] cells with the MDR1 gene [ABCB1], the gene encoding for the efflux protein, P-glycoprotein (P-gp)) in vitro. Assessing transport in both directions (apical to basolateral and basolateral to apical) across the cell monolayers enables an efflux ratio to be determined. […] This provides a prediction of blood brain barrier (BBB) penetration potential/permeability and efflux ratio. Effect in CACO-2 (Colon Adenocarcinoma cells) as a permeability assay and on cytochrome P450 (CYP 450) were also determined. CYP enzymes catalyze oxidative biotransformation (phase 1 metabolism) of most drugs. CYP enzymes, bind to membranes in a cell (cyto) and contain a heme pigment (chrome and P) that absorbs light at a wavelength of 450 nm when exposed to carbon monoxide. Metabolism of a drug by CYP enzymes is a major source of variability in drug effect. These were measured by Chem Partners. The relative effect on HFF and parasite enzymes also were compared.

The target of data set [4] is T1, P. falciparum bc1 complex cytochrome c reductase (Pfbc1) (Plasmodium falciparum, UniProt Q02768).
T1 construct: Parasite extract was then prepared by disruption with a sonicating probe; endogenous in cells; host or cells: P. falciparum strain 3D7 blood-stage culture, sonicated parasite extract
T1 sequence (Q02768 1-376): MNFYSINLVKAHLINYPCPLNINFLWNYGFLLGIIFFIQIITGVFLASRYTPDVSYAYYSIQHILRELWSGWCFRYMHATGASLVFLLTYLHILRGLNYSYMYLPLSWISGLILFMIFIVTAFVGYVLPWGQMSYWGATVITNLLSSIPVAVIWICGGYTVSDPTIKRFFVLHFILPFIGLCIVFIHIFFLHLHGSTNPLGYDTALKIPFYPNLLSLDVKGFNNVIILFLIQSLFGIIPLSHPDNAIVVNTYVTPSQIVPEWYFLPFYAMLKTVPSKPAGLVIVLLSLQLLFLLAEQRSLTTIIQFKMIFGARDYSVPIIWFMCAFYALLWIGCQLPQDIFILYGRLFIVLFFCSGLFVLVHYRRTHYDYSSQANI
Kind of data set: Pfbc1 native assay (cytochrome c reduction by parasite extract). In kind it is biochemical. The conditions noted are these: atovaquone 1 μM positive control, X ± S.D., N = 4. How it is done: P. falciparum 3D7 strain were obtained from the Liverpool School of Tropical Medicine. Protease cocktail inhibitor was obtained from Roche. Bradford protein assay dye reagent was obtained from Bio-Rad. All other reagents were obtained from Sigma-Aldrich. Decylubiquinol was produced as per Fisher et al. ([2009]). In brief, 25 mg of decylubiquinone were dissolved in 400 μL of nitrogen-saturated hexane. An equal volume of aqueous 1 M sodium dithionite was added, and the mixture vortexed until colorless. The organic phase containing the decylubiquinol was collected, the solvent was evaporated under N2 and the decylubiquinol finally dissolved in 100 μL of 96% ethanol (acidified with 10 mM HCl). Concentrations of decylubiquinol was determined spectrophotometrically on a Cary 300 Bio UV/visible spectrophotometer (Varian, UK) from absolute spectra, using ε288−−320 = 8.1 mM^−1.cm^−1. Decylubiquinol was stored at −80°C and used within 2 weeks. […]
The protocol for the preparation of parasite extract was adapted from Fisher et al. ([2009]). […] The protein concentration of the parasite extract was determined by Bradford protein assay (Bio-Rad).
P. falciparum bc1 complex cytochrome c reductase (Pfbc1) activity was measured by monitoring cytochrome c reduction at 550 vs. 542 nm using a Cary 300 Bio UV-Visible Spectrophotometer (Varian, UK), using a protocol adapted from Fisher et al. ([2009]). […]

Molecules are shown by their SMILES. ≈ marks a conversion by molar mass, not a printed value.

What is called IC50 is the midpoint of a concentration-inhibition curve. For orientation: kinetic solubility means the concentration staying in solution when a stock, usually in DMSO, is diluted into the medium. For orientation: inhibition means how much of the control response was suppressed. Low values mean a response near the control, high ones a response far below the control.

Turning to `COc1cc2[nH]c(C)c(-c3ccc(Oc4ccc(OC(F)(F)F)cc4)cc3)c(=O)c2cc1Cl` [ELQ 300], the “efficacy in the in vivo malaria model” value in data set [1] is recorded as “not effective”.
For the molecule `O=c1c2c([nH]c(CO)c1-c1ccc(Oc3ccc(OC(F)(F)F)cc3)cc1)CCCC2` [JAG099], the IC50 in data set [2] is 380 nM. In data set [3], this molecule had a kinetic solubility of 4.05 µM (≈ 1.75 µg/mL). Further, the inhibition at 1 µM in data set [4] was found to be 81.3 ± 6%.
